Drawing on US12486254B2, “Uracil derivatives for stimulating read-through of premature termination codons” (Southern Research Institute, priority 2022, dated 2025), this text covers EC50 for four molecules.

One experiment deals with W134X-CF#14 FRT. Briefly: Read-through of a premature termination codon, W134X-CF#14 FRT data, with G418. In kind it is cell-based. The settings on record: in presence of G418. As to the method:
(§1) The compounds shown in Table 1 were evaluated for their ability to stimulate read-through of a premature termination codon, and their respective activities are shown in Tables 2 and 3 below.

Another experiment concerns G542X#10-HBE5x5. The experiment is described as follows: Read-through of a premature termination codon, G542X#10-HBE5x5 (Table 3). The settings on record: with G418. It counts as cell-based. As for the experimental part:
as §1

As for `CCn1c(=O)c(C(=O)CN(CC(=O)N2CCC(F)(F)CC2)C(C)C)c(N)n(Cc2ccc(F)cc2)c1=O` [1.203], the EC50 in the experiment on W134X-CF#14 FRT was 4.1 µM; in the experiment on G542X#10-HBE5x5 it was at least 100 µM.

Consider `CCN(CC(N)=O)CC(=O)c1c(N)n(Cc2ccccc2)c(=O)n(CC)c1=O` [1.36], for which the EC50 was 93.9 µM in the experiment with W134X-CF#14 FRT and at least 100 µM in the experiment on G542X#10-HBE5x5.

Turning to `CCn1c(=O)c(C(=O)CN2CCc3cc(F)ccc3C2)c(N)n(Cc2ccccc2)c1=O` [1.7], the EC50 with W134X-CF#14 FRT was 32.1 µM; with G542X#10-HBE5x5, at least 100 µM.

Take `CCn1c(=O)c(C(=O)CN2CCCC[C@@H]2C(=O)NCC2CC2)c(N)n(Cc2ccccc2)c1=O` [1.158]: the results for the EC50 in the experiment with W134X-CF#14 FRT and in the experiment on G542X#10-HBE5x5 were 2.59 µM and at least 100 µM, respectively.

Usually EC50 stands for the concentration needed to bring the measured effect to its halfway point.
